Where two headings read alike, the source gives them in different places.
Test system: H460 non-cell lung cancer human tumor cell line
Assay: In vitro human tumor cell line cytotoxicity (proliferation) assay, AlamarBlue
Assay type: cell-based
Protocol: IC50 values are reported in micromolar and result from exposure of compound at various concentrations for 2 hrs followed by a wash step and addition of fresh media followed by growth and cell viability staining and comparison to a media only treated control.
Specifically, exponentially growing cells are seeded at a density of 4×10^3 cells per well in a 96 well plate and incubated at 37° C. in 5% CO2, 95% air and 100% relative humidity for 24 hours prior to addition of test compounds. Compounds are solubilized in 100% DMSO at 200 times the desired final test concentration. At the time of drug addition, compounds are further diluted to 4 times the desired final concentration with complete medium. Aliquots of 50 μl of compound at specified concentrations are added to microtiter wells already containing 150 μl of medium, resulting in the final drug concentration reported. After drug addition, the plates are incubated for an additional 2 hours at 37° C., 5% CO2, 95% air, and 100% relative humidity, then the drug is washed off and fresh medium is added and the plates are incubated for addition 70 hrs at 37° C., 5% CO2, 95% air and 100% relative humidity. At the end of this incubation, the viable cells are quantified using the AlamarBlue assay. The drug concentration resulting in growth inhibition of 50% (IC50) is calculated using Prism software (Irvine, Calif.), and the results are listed in the table.

[1] = Homo sapiens, NCI-H460, H460 cells, under air, 2 hrs exposure, wash, then 70 hrs growth, read-out: IC50 (air)
[2] = Homo sapiens, NCI-H460, H460 cells, under nitrogen, 2 hrs exposure, wash, then 70 hrs growth, read-out: IC50 (N2)
[3] = H460 cells, under air, 2 hrs exposure, wash, then 70 hrs growth, read-out: IC50 (air)
[4] = H460 cells, under nitrogen, 2 hrs exposure, wash, then 70 hrs growth, read-out: IC50 (N2)
[5] = Homo sapiens, NCI-H460, read-out: IC50 (N2), H460 cells, under nitrogen, 2 hrs exposure, wash, then 70 hrs growth
[6] = Homo sapiens, NCI-H460, read-out: IC50 (air), H460 cells, under air, 2 hrs exposure, wash, then 70 hrs growth

SMILES | IC50 [1] [nM] | IC50 [2] [nM] | other results
O=[N+]([O-])c1ncn(-c2ccc(C(F)(F)F)cc2)c1COP(=O)(N1CC1)N1CC1 [compound 2656] | 2400 | 100 | 
CC(C)C(OP(=O)(N1CC1)N1CC1)c1ncc([N+](=O)[O-])n1CCO (stereo not drawn) [compound 2658] | 86000 | 300 | 
CCC(OP(=O)(N1CC1)N1CC1)c1ncc([N+](=O)[O-])n1C (stereo not drawn) [compound 2662] | 22000 | 30 | 
O=[N+]([O-])c1ccc(COP(=O)(N2CC2)N2CC2)cc1F [compound 2666] | 24000 | 2000 | 
Cc1cc(C(C)OP(=O)(N2CC2)N2CC2)ccc1[N+](=O)[O-] (stereo not drawn) [compound 2672] | 180000 | 3100 | 
O=[N+]([O-])c1ccc2c(c1)CCCC2OP(=O)(N1CC1)N1CC1 (stereo not drawn) [compound 2675] | 3400 | 50 | 
O=[N+]([O-])c1ccc2c(c1)CCCC2OP(=O)(N1CC1)N1CC1 (stereo not drawn) [compound 2676] |  |  | IC50 [3]: 3700 nM; IC50 [4]: 100 nM
CC(OP(=O)(N1CC1)N1CC1)c1ccc([N+](=O)[O-])c(F)c1 (stereo not drawn) [compound 2678] | 32000 | 400 | 
CNc1cc(C(C)OP(=O)(N2CC2)N2CC2)ccc1[N+](=O)[O-] (stereo not drawn) [compound 2679] | 34000 | 2900 | 
CC(OP(=O)(N1CC1)N1CC1)c1ccc([N+](=O)[O-])c(N(C)C)c1 (stereo not drawn) [compound 2680] | 110000 | 2600 | 
CCC(OP(=O)(N1CC1)N1CC1)c1ccc([N+](=O)[O-])cc1 (stereo not drawn) [compound 2681] | 28000 | 300 | 
CC(=O)OCC(OP(=O)(N1CC1)N1CC1)c1ccc([N+](=O)[O-])cc1 (stereo not drawn) [compound 2686] | 79000 | 3100 | 
CC(OP(=O)(N1CC1)N1CC1)c1ccc([N+](=O)[O-])c(NC2CC2)c1 (stereo not drawn) [compound 2687] | 15000 | 2200 | 
C=CCC(OP(=O)(N1CC1)N1CC1)c1ccc([N+](=O)[O-])cc1 (stereo not drawn) [compound 2689] | 43000 | 600 | 
O=[N+]([O-])c1ccc(C(CC(F)(F)F)OP(=O)(N2CC2)N2CC2)cc1 (stereo not drawn) [compound 2690] | 99000 | 3200 | 
CC(OP(=O)(N1CC1)N1CC1)c1ccc([N+](=O)[O-])c(N=[N+]=[N-])c1 (stereo not drawn) [compound 2691] | 2300 | 2300 | 
CC(OP(=O)(N1CC1)N1CC1)c1ccc([N+](=O)[O-])c(N)c1 (stereo not drawn) [compound 2692] | 6200 | 2700 | 
CC(OP(=O)(N1CC1)N1CC1)c1ccc([N+](=O)[O-])c(Nc2ccccc2)c1 (stereo not drawn) [compound 2693] | 1900 | 400 | 
CC(OP(=O)(N1CC1)N1CC1)c1ccc([N+](=O)[O-])c(N2CCOCC2)c1 (stereo not drawn) [compound 2695] | 130000 | 4200 | 

SMILES | IC50 [1] [nM] | IC50 [2] [nM] | other results
CC(OP(=O)(N1CC1)N1CC1)c1ccc([N+](=O)[O-])c(N2CCCCC2)c1 (stereo not drawn) [compound 2696] | 310000 | 7400 | 
CC(OP(=O)(N1CC1)N1CC1)c1ccc([N+](=O)[O-])c(Nc2ccc([N+](=O)[O-])cc2)c1 (stereo not drawn) [compound 2697] |  |  | IC50 [5]: 500 nM; IC50 [6]: 1500 nM
CC(OP(=O)(N1CC1)N1CC1)c1ccc([N+](=O)[O-])c(OCC(F)(F)F)c1 (stereo not drawn) [compound 2698] | 3700 | 1600 | 
CC(OP(=O)(N1CC1)N1CC1)c1ccc([N+](=O)[O-])c(S(C)(=O)=O)c1 (stereo not drawn) [compound 2700] | 370000 | 350000 | 
CCN(CC)c1cc(C(C)OP(=O)(N2CC2)N2CC2)ccc1[N+](=O)[O-] (stereo not drawn) [compound 2701] | 66000 | 1300 | 
CC(OP(=O)(N1CC1)N1CC1)c1ccc([N+](=O)[O-])c(N2CCN(C)CC2)c1 (stereo not drawn) [compound 2702] | 47000 | 800 | 
CC(OP(=O)(N1CC1)N1CC1)c1ccc([N+](=O)[O-])c(-n2ccnc2)c1 (stereo not drawn) [compound 2703] |  |  | IC50 [3]: 99000 nM; IC50 [4]: 200 nM
CC(OP(=O)(N1CC1)N1CC1)c1ccc([N+](=O)[O-])cc1F (stereo not drawn) [compound 2706] | 14000 | 30 | 
CC(OP(=O)(N1CC1)N1CC1)c1ccc([N+](=O)[O-])c(N(C)O)c1 (stereo not drawn) [compound 2707] | 200 | 100 | 
CC(OP(=O)(N1CC1)N1CC1)c1ccc([N+](=O)[O-])c(N2CCCC2)c1 (stereo not drawn) [compound 2708] | 20000 | 3000 | 
CC(OP(=O)(N1CC1)N1CC1)c1ccc([N+](=O)[O-])c(N2CCC3(CC2)OCCO3)c1 (stereo not drawn) [compound 2709] | 26000 | 2400 | 
CC(OP(=O)(N1CC1)N1CC1)c1ccc([N+](=O)[O-])c(C#N)c1 (stereo not drawn) [compound 2710] | 3000 | 30 | 
CC(C)(C)[Si](C)(C)OCCC(OP(=O)(N1CC1)N1CC1)c1ccc([N+](=O)[O-])cc1 (stereo not drawn) [compound 2712] | 300 | 200 | 
O=[N+]([O-])c1ccc(C(CCO)OP(=O)(N2CC2)N2CC2)cc1 (stereo not drawn) [compound 2714] | 94000 | 500 | 
CC(OP(=O)(N1CC1)N1CC1)c1cc(F)c([N+](=O)[O-])cc1F (stereo not drawn) [compound 2721] | 9000 | 20 | 
CC1=NCCN1c1cc(C(C)OP(=O)(N2CC2)N2CC2)ccc1[N+](=O)[O-] (stereo not drawn) [compound 2722] | 5000 | 900 | 
CC(OP(=O)(N1CC1)N1CC1)c1ccc([N+](=O)[O-])c(N2CCNC2(C)O)c1 (stereo not drawn) [compound 2723] | 420000 | 29000 | 
CC(OP(=O)(N1CC1)N1CC1)c1ccc([N+](=O)[O-])c(NS(C)(=O)=O)c1 (stereo not drawn) [compound 2726] | 19000 | 200 | 
CC(OP(=O)(N1CC1)N1CC1)c1ccc([N+](=O)[O-])c(-n2cncn2)c1 (stereo not drawn) [compound 2727] | 31000 | 200 | 

SMILES | IC50 [1] [nM] | IC50 [2] [nM] | other results
CC(OP(=O)(N1CC1)N1CC1)c1ccc([N+](=O)[O-])c(-n2cnc([N+](=O)[O-])c2)c1 (stereo not drawn) [compound 2728] |  |  | IC50 [5]: 200 nM; IC50 [6]: 22000 nM
CCN(CC)c1cc(C(C)OP(=O)(N2CC2)N2CC2)c(F)cc1[N+](=O)[O-] (stereo not drawn) [compound 2730] | 22000 | 700 | 
CC(OP(=O)(N1CC1)N1CC1)c1cc(-n2ccnc2)c([N+](=O)[O-])cc1F (stereo not drawn) [compound 2731] | 13000 | 100 | 
CC(OP(=O)(N1CC1)N1CC1)c1cc(N2CCN(C)CC2)c([N+](=O)[O-])cc1F (stereo not drawn) [compound 2732] | 23000 | 200 | 
CC(OP(=O)(N1CC1)N1CC1)c1cc(-n2cncn2)c([N+](=O)[O-])cc1F (stereo not drawn) [compound 2733] | 2800 | 30 | 
CC(OP(=O)(N1CC1)N1CC1)c1ccc([N+](=O)[O-])c(-n2ccc3ccccc32)c1 (stereo not drawn) [compound 2734] | 2500 | 1600 | 
CCCCCCCCN(C)c1cc(C(C)OP(=O)(N2CC2)N2CC2)ccc1[N+](=O)[O-] (stereo not drawn) [compound 2735] | 3100 | 2000 | 
CC(OP(=O)(N1CC1)N1CC1)c1ccc([N+](=O)[O-])c(N(C)CCN(C)C)c1 (stereo not drawn) [compound 2736] | 150000 | 2800 | 
CC(OP(=O)(N1CC1)N1CC1)c1ccc([N+](=O)[O-])c(-n2cnc3ccccc32)c1 (stereo not drawn) [compound 2737] | 21000 | 200 | 
Cc1nccn1-c1cc(C(C)OP(=O)(N2CC2)N2CC2)ccc1[N+](=O)[O-] (stereo not drawn) [compound 2738] | 20000 | 200 | 
CC(OP(=O)(N1CC1)N1CC1)c1ccc([N+](=O)[O-])c(N2CCCC[C@H]2C)c1 (stereo partly drawn) [compound 2740] | 24000 | 1400 | 
CC(OP(=O)(N1CC1)N1CC1)c1cc(-n2cnc([N+](=O)[O-])c2)c([N+](=O)[O-])cc1F (stereo not drawn) [compound 2742] |  |  | IC50 [5]: 100 nM; IC50 [6]: 3000 nM
CC(OP(=O)(N1CC1)N1CC1)c1cc(-n2cncc2[N+](=O)[O-])c([N+](=O)[O-])cc1F (stereo not drawn) [compound 2743] |  |  | IC50 [5]: 200 nM; IC50 [6]: 3700 nM
CC(OP(=O)(N1CC1)N1CC1)c1cc(-n2cnc3ccccc32)c([N+](=O)[O-])cc1F (stereo not drawn) [compound 2744] | 2700 | 50 | 
CC(OP(=O)(N1CC1)N1CC1)c1cc(N(C)CCN(C)C)c([N+](=O)[O-])cc1F (stereo not drawn) [compound 2745] | 58000 | 300 | 
CC(OP(=O)(N1CC1)N1CC1)c1ccc([N+](=O)[O-])c(-n2cnc(CO)c2)c1 (stereo not drawn) [compound 2746] | 220000 | 2600 | 
Cc1cn(-c2cc(C(C)OP(=O)(N3CC3)N3CC3)ccc2[N+](=O)[O-])cn1 (stereo not drawn) [compound 2747] | 39000 | 300 | 
CC(OP(=O)(N1CC1)N1CC1)c1ccc([N+](=O)[O-])c(-n2cccn2)c1 (stereo not drawn) [compound 2748] | 38000 | 300 | 
CC(OP(=O)(N1CC1)N1CC1)c1ccc([N+](=O)[O-])c(-n2cnc(-c3ccccc3)c2)c1 (stereo not drawn) [compound 2749] | 3000 | 100 | 
